Measured values: the supplement of paper PMC4862054

Columns and labels:
HCC1937 [1] = settings: 72 h
In short: (§1)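 A 20 µl suspension of breast cancer cells was placed in 384-well plates that already contained compound at 5 concentrations in 10-fold steps across a compound-specific 10,000-fold range, and the plates were left for 72 h. CellTox Green fluorescence at 485/520 nm gave cell death, and CellTiter-Glo luminescence, read after 10 min at room temperature, gave viability. Each plate was normalised to 0.1 % DMSO and a positive kill control. EC50 was fitted from the curves and censored at the top concentration.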

CAL-51 [2] = settings: 72 h
In short: as §1

MCF-10A = settings: 72 h
In short: as §1

BT-474 = settings: 72 h
In short: as §1

Hs578T [3] = settings: 72 h
In short: as §1

CAL-85-1 [4] = settings: 72 h
In short: as §1

MDA-MB-468 [5] = settings: 72 h
In short: as §1

CAL-120 [6] = settings: 72 h
In short: as §1

MDA-MB-453 [7] = settings: 72 h
In short: as §1

MDA-MB-231 = settings: 72 h
In short: as §1

DU-4475 [8] = experiment: normalised viability (% of control), CellTiter-Blue; higher = more viable cells (about 100 = DMSO control); settings: 3000 nM; incubation time: 72 h
Procedure: (§2)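 DSRT, CellTiter-Blue viability, 72 h incubation. Signal is normalised to DMSO and benzethonium chloride controls. Value is the normalised response at dose 8.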

CAL-51 [9] = experiment: as above; settings: 3000 nM; incubation time: 72 h
Procedure: as §2

CAL-148 [10] = experiment: as above; settings: 3000 nM; incubation time: 72 h
Procedure: as §2

HDQ-P1 [11] = experiment: as above; settings: 3000 nM; incubation time: 72 h
Procedure: as §2

CAL-85-1 [12] = experiment: as above; settings: 3000 nM; incubation time: 72 h
Procedure: as §2

MDA-MB-453 [13] = experiment: as above; settings: 3000 nM; incubation time: 72 h
Procedure: as §2

DU-4475 [14] = experiment: as above; settings: 1000 nM; incubation time: 72 h
Procedure: (§3)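 DSRT, CellTiter-Blue viability, 72 h incubation. Signal is normalised to DMSO and benzethonium chloride controls. Value is the normalised response at dose 7.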

CAL-51 [15] = experiment: as above; settings: 1000 nM; incubation time: 72 h
Procedure: as §3

CAL-148 [16] = experiment: as above; settings: 1000 nM; incubation time: 72 h
Procedure: as §3

HDQ-P1 [17] = experiment: as above; settings: 1000 nM; incubation time: 72 h
Procedure: as §3

CAL-85-1 [18] = experiment: as above; settings: 1000 nM; incubation time: 72 h
Procedure: as §3

MDA-MB-453 [19] = experiment: as above; settings: 1000 nM; incubation time: 72 h
Procedure: as §3

DU-4475 [20] = experiment: normalised viability (% of control), CellTiter-Blue; higher = more viable cells (100 = DMSO, 0 = benzethonium chloride kill control); settings: 1 nM; incubation time: 72 h
Procedure: (§4)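 DSRT, CellTiter-Blue viability, 72 h incubation. Signal is normalised to DMSO and benzethonium chloride controls. Value is the normalised response at dose 1.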

HCC1937 [21] = experiment: as above; settings: 1 nM; incubation time: 72 h
Procedure: as §4

CAL-51 [22] = experiment: as above; settings: 1 nM; incubation time: 72 h
Procedure: as §4

MFM-223 = experiment: as above; settings: 1 nM; incubation time: 72 h
Procedure: as §4

BT-549 = experiment: as above; settings: 1 nM; incubation time: 72 h
Procedure: as §4

HDQ-P1 [23] = experiment: as above; settings: 1 nM; incubation time: 72 h
Procedure: as §4

Hs578T [24] = experiment: as above; settings: 1 nM; incubation time: 72 h
Procedure: as §4

MDA-MB-468 [25] = experiment: as above; settings: 1 nM; incubation time: 72 h
Procedure: as §4

CAL-120 [26] = experiment: as above; settings: 1 nM; incubation time: 72 h
Procedure: as §4

SK-BR-3 = experiment: as above; settings: 1 nM; incubation time: 72 h
Procedure: as §4

HCC1599 = experiment: as above; settings: 1 nM; incubation time: 72 h
Procedure: as §4

| EC50, CellTiter-Glo (HCC1937 [1]) | EC50, CellTiter-Glo (BT-474) | EC50, CellTiter-Glo (MDA-MB-468 [5]) | EC50, CellTiter-Glo (MDA-MB-453 [7]) | EC50, CellTiter-Glo (MDA-MB-231) | Compound | EC50, CellTiter-Glo (CAL-51 [2]) | EC50, CellTiter-Glo (MCF-10A) | EC50, CellTiter-Glo (Hs578T [3]) | EC50, CellTiter-Glo (CAL-85-1 [4]) | EC50, CellTiter-Glo (CAL-120 [6]) | normalised viability (DU-4475 [8]) | normalised viability (CAL-51 [9]) | normalised viability (CAL-148 [10]) | normalised viability (HDQ-P1 [11]) | normalised viability (CAL-85-1 [12]) | normalised viability (MDA-MB-453 [13]) | normalised viability (DU-4475 [14]) | normalised viability (CAL-51 [15]) | normalised viability (CAL-148 [16]) | normalised viability (HDQ-P1 [17]) | normalised viability (CAL-85-1 [18]) | normalised viability (MDA-MB-453 [19]) | normalised viability (DU-4475 [20]) | normalised viability (HCC1937 [21]) | normalised viability (CAL-51 [22]) | normalised viability (MFM-223) | normalised viability (BT-549) | normalised viability (HDQ-P1 [23]) | normalised viability (Hs578T [24]) | normalised viability (MDA-MB-468 [25]) | normalised viability (CAL-120 [26]) | normalised viability (SK-BR-3) | normalised viability (HCC1599) |
| --- | --- | --- | --- | --- | --- | --- | --- | --- | --- | --- | --- | --- | --- | --- | --- | --- | --- | --- | --- | --- | --- | --- | --- | --- | --- | --- | --- | --- | --- | --- | --- | --- | --- |
| 2370 nM | 1750 nM | 4.39 µM | > 10 µM | 1270 nM | CC(C)c1c(C(=O)Nc2ccccc2)c(-c2ccccc2)c(-c2ccc(F)cc2)n1CC[C@@H](O)C[C@@H](O)CC(=O)O [Atorvastatin] | 2210 nM | 2280 nM | 7.69 µM | 1900 nM | 1840 nM | – | – | – | – | – | – | – | – | – | – | – | – | – | – | – | – | – | – | – | – | – | – | – |
| – | – | – | – | – | O=C(O)CCCc1ccc(N(CCCl)CCCl)cc1 [Chlorambucil] | – | – | – | – | – | 125% | 115% | 96.7% | 107% | 97.7% | 108% | 103% | 101% | 105% | 98.9% | 97.5% | 113% | 102% | 97.6% | 111% | 94.3% | 96.7% | 111% | 99.4% | 95.2% | 96.6% | 101% | 117% |
